We go through ten compounds from patent publication EP0160546A2, “Cephalosporin compounds, and their production, and medicaments containing them” (YAMANOUCHI PHARMACEUTICAL CO. LTD., priority 1984, dated 1985).

The test system of data set [1] is E. coli NIHJ. The experiment in a line: Antibacterial activity (minimum effective inhibitory concentration). Type of data set: cell-based. Particulars: Escherichia coli, read-out: minimum effective inhibitory concentrations. An excerpt: (§1) Antibacterial activities (minimum effective inhbitory concentrations) of compounds of formula I (taken from the following Examples) are shown in the following Table.

Data set [2] concerns Kleb. pneumoniae ATCC 10031. Described as above. It is filed as cell-based. Particulars: Klebsiella pneumoniae, ATCC10031, read-out: minimum effective inhibitory concentrations.
From the text: as §1

For data set [3], the system named is Ps. aeruginosa NCTC 10490. The data set is described as above. It is filed as cell-based. Particulars: Pseudomonas aeruginosa, NCTC10490, read-out: minimum effective inhibitory concentrations.
From the text: as §1

In data set [4] the test system is Staph. epidermidis IID 866. Described as above. It is filed as cell-based. The following applies: Staphylococcus epidermidis, IID866, read-out: minimum effective inhibitory concentrations.
From the text: as §1

Data set [5] relates to Serr. marcescense NY-10. Described as above. It is filed as cell-based. The following applies: read-out: minimum effective inhibitory concentrations.
From the text: as §1

Data set [6] in a line: Solubility in water. Type of data set: physicochemical.

Molecules are shown by their SMILES. In brackets after ≈: the same amount, converted by molar mass. Like-named read-outs stand apart in the source and are kept apart here.

Turning to `CC(C)(ON=C(C(=O)NC1C(=O)N2C(C(=O)[O-])=C(C[n+]3cc(N)cc(N)c3)CSC12)c1csc(N)n1)C(=O)O` (stereo not drawn) [Example 2, (Z)-7-[λ-(2-amino-4 thiazolyl)-λ-(1-carboxy-1-methylethoxyimino)acetamido]--3-(3,5-diamino-1-pyridiniomethyl)-Δ^3-cephem-4-carboxylate], the MIC in data set [1] (E. coli NIHJ) was < 0.2 mg/L; in data set [2], < 0.2 mg/L; in data set [3], 0.39 mg/L (≈ 0.676 µM); in data set [4] it was 1.56 mg/L (≈ 2.71 µM); in data set [5] (Serr. marcescense NY-10), < 0.2 mg/L.

Regarding `CON=C(C(=O)NC1C(=O)N2C(C(=O)[O-])=C(C[n+]3ccc(N)c(N)c3)CSC12)c1csc(N)n1` (stereo not drawn) [Example 3, (Z)-7-[λ-(2-amino-4-thiazolyl)-λ-(methoxyimino)acetamido]-3-(3,4-diamino-1-pyridiniomethyl)-Δ^3-cephem-4-carboxylate], the MIC in data set [1] (E. coli NIHJ) is < 0.2 mg/L; in data set [2], < 0.2 mg/L; in data set [3], 1.56 mg/L (≈ 3.09 µM); in data set [4], 0.2 mg/L (≈ 0.396 µM); in data set [5] (Serr. marcescense NY-10), < 0.2 mg/L.

Consider `CO/N=C(\C(=O)N[C@@H]1C(=O)N2C(C(=O)[O-])=C(C[n+]3ccc(OC)c(N)c3)CS[C@H]12)c1csc(N)n1` [Example 5, (Z)-7-[α-(2-amino-4-thiazolyl)-α-methoxyiminoacetamido,]-3-(3-amino-4-methoxypyridiniomethyl)-Δ^3-cephem-4-carboxylate], for which the MIC in data set [1] (E. coli NIHJ) is < 0.2 mg/L; in data set [2], < 0.2 mg/L; in data set [3] it was 1.56 mg/L (≈ 3 µM); in data set [4], 0.2 mg/L (≈ 0.385 µM); in data set [5] (Serr. marcescense NY-10), < 0.2 mg/L. The solubility in data set [6] was > 230 mg/mL.

As to `CO/N=C(\C(=O)N[C@@H]1C(=O)N2C(C(=O)[O-])=C(C[n+]3ccc(OCC(O)CO)c(N)c3)CS[C@H]12)c1csc(N)n1` (stereo partly drawn) [Example 6, (Z ) -7-[α-(2-amino-4-thiazolyl)-α-methoxyiminoacetamido]-3-[3-amino-4-(2,3-dihydroxypropyloxy)pyridiniomethyl]-Δ^3-cephem-4-carboxylate], the MIC in data set [1] (E. coli NIHJ) was < 0.2 mg/L; in data set [2], < 0.2 mg/L; in data set [3] it was 1.56 mg/L (≈ 2.69 µM); in data set [4] it was 0.78 mg/L (≈ 1.35 µM); in data set [5] (Serr. marcescense NY-10) it was < 0.2 mg/L.

In the case of `CO/N=C(\C(=O)N[C@@H]1C(=O)N2C(C(=O)[O-])=C(C[n+]3ccc(C)c(N)c3)CS[C@H]12)c1csc(N)n1` [Example 9, (Z)-1-[α-(2-amino-4-thiazolyl)-α-methoxyiminoacet--amido]-3-(3-amino-4-methylpyridiniomethyl)-Δ^3-cephem-4-carboxylic acid], the MIC is < 0.2 mg/L in data set [1] (E. coli NIHJ); < 0.2 mg/L in data set [2]; 1.56 mg/L (≈ 3.1 µM) in data set [3]; 0.2 mg/L (≈ 0.397 µM) in data set [4]; < 0.2 mg/L in data set [5] (Serr. marcescense NY-10).

For `CON=C(C(=O)NC1C(=O)N2C(C(=O)[O-])=C(C[n+]3ccc4c(c3)N(OC)C(=O)CO4)CSC12)c1csc(N)n1` (stereo not drawn) [Example 10], the MIC is < 0.2 mg/L in data set [1] (E. coli NIHJ); < 0.2 mg/L in data set [2]; 0.39 mg/L (≈ 0.678 µM) in data set [3]; 6.25 mg/L (≈ 10.9 µM) in data set [4]; 0.2 mg/L (≈ 0.347 µM) in data set [5] (Serr. marcescense NY-10).

As for `CON=C(C(=O)NC1C(=O)N2C(C(=O)[O-])=C(C[n+]3ccc4c(c3)NC(=O)CO4)CSC12)c1csc(N)n1` (stereo not drawn) [Example 11, (Z)-7-[α-(2-amino-4-thiazolyl)-α-methoxyimino-acetamido]-3-[[6-(3-oxo-3,4-dihydro-2H-pyrido[4,3-b]-1,4-oxazinio)]methyl -Δ^3-cephem-4-carboxylate], the MIC is < 0.2 mg/L in data set [1] (E. coli NIHJ); < 0.2 mg/L in data set [2]; 1.56 mg/L (≈ 2.86 µM) in data set [3]; 0.78 mg/L (≈ 1.43 µM) in data set [4]; < 0.2 mg/L in data set [5] (Serr. marcescense NY-10).

Take `CON=C(C(=O)NC1C(=O)N2C(C(=O)[O-])=C(C[n+]3ccc4c(c3)N(O)C(=O)CO4)CSC12)c1csc(N)n1` (stereo not drawn) [Example 12, (Z)-7-[α-(2-amino-4-thiazolyl)-α-methoxyiminoacetamido]-3-[[6-(4-hydroxy-3-oxo-3,4-dihydro-2H-pyrido[4,3-b]-1,4-oxazinio)]methyl]-Δ^3-cephem-4-carboxylate]: the MIC in data set [1] (E. coli NIHJ) is < 0.2 mg/L; in data set [2] it was < 0.2 mg/L; in data set [3], 1.56 mg/L (≈ 2.78 µM); in data set [4] it was 1.56 mg/L (≈ 2.78 µM); in data set [5] (Serr. marcescense NY-10), < 0.2 mg/L.

Consider `CON=C(C(=O)NC1C(=O)N2C(C(=O)[O-])=C(C[n+]3ccc4c(c3)NCCO4)CSC12)c1csc(N)n1` (stereo not drawn) [Example 13, (Z)-7-[α-(2-amino-4-thiazolyl) -α-methoxyiminoacetamido]-3-[[6-(3,4-dihydro-2H-pyrido[4,3-b1-1,4-oxazinio)]methyl]-Δ^3-cephem-4-carboxylate], for which the MIC was < 0.2 mg/L in data set [1] (E. coli NIHJ); < 0.2 mg/L in data set [2]; 0.78 mg/L (≈ 1.47 µM) in data set [3]; 0.39 mg/L (≈ 0.734 µM) in data set [4]; < 0.2 mg/L in data set [5] (Serr. marcescense NY-10).

Turning to `CC(C)(O/N=C(\C(=O)N[C@@H]1C(=O)N2C(C(=O)[O-])=C(C[n+]3ccccc3)CS[C@H]12)c1csc(N)n1)C(=O)O` [cefta-zidime, reference compound], the MIC was < 0.2 mg/L in data set [1]; < 0.2 mg/L in data set [2]; 0.78 mg/L (≈ 1.43 µM) in data set [3]; 3.13 mg/L (≈ 5.73 µM) in data set [4]; < 0.2 mg/L in data set [5].
